# Data taken from patent publication US20240245696A1, “INHIBITORS OF DNA PK AND USES THEREOF” (BioVentures, LLC, priority 2017, published 2024).
# “Also recorded” adds a separate entry of the source.
# Experiments:
# Th17 T cells = experiment: qPCR on T cell markers, Th17 differentiation of naïve CD4+ T cells; type: cell-based; details: naïve CD4+ T cells from mouse spleens
# Procedure: qPCR on T cell markers: Naïve CD4+ T cells were isolated by standard methods from the spleens of Balbc mice. T cells were grown in culture and treated with cytokines specific for differentiate into Th1 and Th17 subtypes. Additionally, T cells were cultured with NU7441 and FK506. qPCR was performed looking at the following markers: Batf3, RORyt, IL17, IL22, TGFBeta, Lymphotoxin, T-Bet.
# IL-2 = experiment: Secreted IL-2 ELISA, Jurkat cells stimulated with anti-CD28/CD3 dynabeads; type: cell-based, human; details: anti-CD28/CD3 dynabeads 1:1 ratio, 24 hours
# Procedure: Detection of secreted IL-2: Secreted IL-2 was detected by Human IL-2 ELISA Kit from Thermo Scientific (Waltham, MA). The manufacturer's protocol was followed. Prior to harvesting, cells were treated with PHA (50 ng/ml) and PMA (1 μg/mL) for 24 hours with or without the NU7441 inhibitor. Jurkat cells stimulated with the anti-CD28/CD3 dynabeads were done so according to the manufacturer's protocol at a 1:1 ratio for 24 hours prior to harvesting. After stimulation, supernatant samples of Jurkat cells or PBMCs (2 million cells/mL) were collected and diluted 10 times before the assay. IL-2 standards and samples (50 μL) and Biotinylated antibody reagents (50 μL) were added to each well and the plate was incubated for 3 hours at room temperature. The plate was washed 3 times and 100 μL of Streptavidin-HRP solution was added. After 30 minutes of incubation at room temperature, the plate was washed 3 times. TMB substrate (100 μL) was added and incubated for 30 minutes in the dark at room temperature. Stop solution was added and the absorbance of each well was read at 450 nm using the plate reader.
# CHK2 = experiment: Western blot of phosphorylated CHK2 (Thr68) in activated Jurkat cells; type: cell-based, human; details: Jurkat activated with PMA+PHA
# Procedure: Cell lysis and nuclear extract: Cells were washed with cold PBS twice and centrifuged at 5000 rpm for 5 minutes. For the nuclear extract, pellets were suspended with 800 μL of 10 mN HEPES lysis buffer (10 mM HEPES at pH 7.9, 10 mM KCl, 1 mM DTT, and 1× protease and phosphatase inhibitor) and incubated on ice for 15 minutes. 50 μL of NP-40 (10% in water) was added and the pellets were mixed for 10 seconds. Lysates were centrifuged for 5 minutes at 4° C. at 13,000 rpm. The supernatant solution which is containing the cytosolic fraction was discarded and the pellets were resuspended in 20 mM HEPES lysis buffer (20 mM HEPES at pH 7.9, 0.4 M NaCl, 1 mM DTT, and 1× protease, and phosphatase inhibitor) and incubated on ice for 15 minutes with intermittent mixing. Lysates were centrifuged for 10 minutes at 4° C. at 13,000 rpm. The supernatant containing nuclear extract was stored at -20° C. until they were used for the Western blot analysis. For total cell lysates, cell pellets were resuspended with 100 μL of RIPA buffer (150 mM NaCl, 1% Triton X-100, 0.1% SDS, and 50 mM Tris at pH 8.0) and incubated on ice for 10 minutes. The lysates were centrifuged for 10 minutes at 4° C. at 13,000 rpm and the supernatant solutions were stored at -20° C. until they were used for the Western blot analysis. Western blot analysis: Nuclear extract lysates were separated on 3-8% Tris-Acetate gels (Invitrogen). […]
# mTOR = mTOR (phospho-ser2448) ELISA and western blot in activated Jurkat cells; type: cell-based, human
# Procedure: Western blot analysis: Nuclear extract lysates were separated on 3-8% Tris-Acetate gels (Invitrogen). Total cell lysates were separated on 4-20% Tris-Glycine gels (Bio-Rad). Gels were transferred onto PVDF membrane (Millipore) for 2 hours in the cold room at 100V. Immunoblotting was performed using following antibodies: pDNA-PKcs at S2056 (ab18192, Abcam), DNAPK (ab53701, Abcam), pNFAT2 at S237 (ab183023, Abcam), CABIN1 (12660S, Cell signaling), GAPDH (MAB374, Millipore), and Lamin B1 (ab16048, Abcam). HRP-conjugated secondary antibody anti-Rabbit and anti-Mouse (7074S and 7076S, Cell Signaling) was used.
# Detection of calcineurin and mTOR activities: Calcineurin phosphatase activity was detected by Calcineurin Cellular Activity Assay Kit from Millipore (Billerica, MA) and mTOR signaling was detected by Calcium Detection Kit from Abcam (Cambridge, MA). The manufacturer's protocols were followed. Briefly, Jurkat cells (2 million cells/mL) were lysed using lysis buffer. For calcineurin activity, the cell lysates were desalted by gel filtration to remove free phosphates before the assay and were subjected to calcineurin activity assay. The absorbance of each sample was read at 620 nm using the plate reader. […] The absorbance of each sample was read at 450 nm using the plate reader.
smiles,measurement,setting,value
O=c1cc(N2CCOCC2)oc2c(-c3cccc4c3sc3ccccc34)cccc12 [NU7441],"Th17 differentiation (markers Batf3, RoRyt, IL22, TGFBeta, IL17)",Th17 T cells,suppressing a Th17 environment
same,IL-2 production,IL-2,significantly blocked IL-2 production; also recorded: inhibited
same,CHK2 phosphorylation at Thr68,CHK2,reduced CHK2 phosphorylation
same,CHK2 phosphorylation at Thr68,CHK2; listed as NU744,reduced
same,mTOR activation (phosphorylated ser2448),mTOR,did not alter mTOR activation; also recorded: does not alter mTOR activation
